From patent US9296710B2, “Bicyclo (3.1.0) hexane-2, 6-dicarboxylic acid derivatives as mGlu2 receptor agonist” (Eli Lilly and Company, priority 2011, dated 2016)
Structures can show the parent of a compound that is named as a salt.

How the values were obtained:
PepT1 = biological target: T1, PepT1 (Homo sapiens, UniProt P46059); test: In Vitro PepT1 GlySar Inhibition Screen; format: cell-based; conditions: for GlySar uptake inhibition, mean values ± standard deviation (controls): negative and positive controls run in parallel, n=18-19; for inhibition at 5000 µM: prodrug at 5 mM, pH 6.0, PepT1 transiently transfected HeLa cells, 5 μM [14C]Gly-Sar and 20 μM cold Gly-Sar, read-out: Mean GlySar Uptake Inhibition %
T1 construct: expressed in transfected cells; host or cells: HeLa cells (ATCC), transient transfection with FUGENE6
T1 sequence (P46059 1-708): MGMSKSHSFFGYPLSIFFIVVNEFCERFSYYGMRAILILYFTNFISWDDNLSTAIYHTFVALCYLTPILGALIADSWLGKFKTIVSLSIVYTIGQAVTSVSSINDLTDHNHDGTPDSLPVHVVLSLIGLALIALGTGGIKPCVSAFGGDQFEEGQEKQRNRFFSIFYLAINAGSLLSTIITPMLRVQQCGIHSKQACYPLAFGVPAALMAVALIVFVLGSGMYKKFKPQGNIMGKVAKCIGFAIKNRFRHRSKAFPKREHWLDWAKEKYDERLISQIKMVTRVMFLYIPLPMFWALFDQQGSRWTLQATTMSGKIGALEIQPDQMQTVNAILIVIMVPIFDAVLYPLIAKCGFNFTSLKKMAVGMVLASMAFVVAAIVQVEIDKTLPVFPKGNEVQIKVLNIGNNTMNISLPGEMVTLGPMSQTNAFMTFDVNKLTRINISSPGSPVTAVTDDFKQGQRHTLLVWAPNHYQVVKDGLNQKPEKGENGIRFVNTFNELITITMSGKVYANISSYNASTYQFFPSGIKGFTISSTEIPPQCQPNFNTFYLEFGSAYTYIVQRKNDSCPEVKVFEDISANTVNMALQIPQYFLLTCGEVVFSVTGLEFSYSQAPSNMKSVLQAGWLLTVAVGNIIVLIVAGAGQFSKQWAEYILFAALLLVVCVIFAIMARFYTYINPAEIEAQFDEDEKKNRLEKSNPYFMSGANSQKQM
Experimental: PepT1 assays are established to examine the ability of the amino acid prodrug compounds to interact with the intestinal absorption transporter PepT1.
HeLa cells, derived from human cancer cells, (American Type Culture Collection) are grown in Hyclone Medium (Invitrogen, Cat# SH30243) containing 10% fetal bovine serum (FBS), 0.1 mM non essential amino acids (NEAA), and 100 units/mL penicillin with 100 μg/mL streptomycin at 37° C. in a 5% CO2 humidified atmosphere. The cell line is used for up to 40 passages and then discarded. Frozen cells in 1 mL vials are thawed in water bath for 1-2 minutes and added to 5 mL of cell medium at 37° C. Each of the T-flasks is provided with 8.5 mL of the fresh medium and 1.5 mL of the cell stock. Cells are passaged twice during a week. […] Each new flask receives a combination of 8.5 mL of fresh medium and 1.5 mL of cell stock, in order to obtain 1:6 cell dilution. Cells are incubated at 37° C., until ready for the uptake study.
Cells that are 70-80% confluent in the T-flasks are plated 1 day prior to the transfection procedure. The flask with the cell stock is treated with PBS-EDTA and trypsin to detach the cells, and transfection medium is used from this point. Transfection medium consists of Dulbecco's Modified Eagle Medium (DMEM)+NEAA. To each well, 0.5 mL of the cell mixture is added (1.3×10^5 is the desired cell concentration) and the cells are incubated at 37° C. overnight. Twenty four hours before the assay, cells are transfected with PEPT1. Transfection mixture is prepared by mixing 600 μL of serum free transfection medium, 18 μL of FUGENE6® (Roche Diagnostics), and 11 μg of the PepT1 DNA. The transfection reagent-DNA complex is incubated for 20 minutes and 24 μL of the reagent-DNA complex is added to each well.
Inhibition of PEPT1-mediated [glycyl-1-2-^14C]Glyclysarcosine (GlySar) uptake activity is measured in the cells cultured in the 24-well plates 24-hours post transfection as previously published (Zhang et al. 2004. J. Pharm. Exper Ther. 310:437-445). To measure the ability of a compound of the present invention to inhibit the uptake of [^14C]Gly-Sar, prodrug compounds are incubated with 80 to 90% confluent PepT1 transiently transfected HeLa cells at 5 mM in pH 6.0 uptake medium in the presence of 5 μM [^14C]Gly-Sar (Moravek Biochemicals) and 20 μM cold Gly-Sar. Uptake media consists of 140 mM NaCl, 5.4 mM KCl, 1.8 mM CaCl2, 0.8 mM MgSO4, 5 mM Glucose, 25 mM tris(hydroxymethyl)aminomethane buffer (TRIS). The solution is then brought to pH 6.0 using 2-(N-morpholino)ethanesulfonic acid. The incubation volume is 500 μL and is performed at room temperature for 3 minutes. To stop the uptake at the conclusion of the incubation time, the uptake media is aspirated off of the cell monolayer and 500 μL of ice cold PBS added to the well. The cells are washed 3 times with 500 μL of room temperature PBS without Ca^+2 and Mg^+2. The cells are then lysed with 300 μL of 1% TRITON® X100 H2O solution. A 200 μL aliquot is removed and radioactivity is determined by liquid scintillation counting to measure the [^14C]Gly-Sar present in each of the incubation wells. A no inhibitor control is established and the percent inhibition of each prodrug is calculated with respect to this control.

[1] = test system: PCP-induced hyperlocomotor activity in mice; test: Reversal of Phencyclidine (PCP)-Induced Hyperlocomotor Activity in Mice; format: in vivo, mouse; conditions: Mus musculus, i.p. administration, 30 minutes prior to 7.5 mg/kg PCP
Description: This assay for Reversal of Phencyclidine (PCP)-Induced Hyperlocomotor Activity in Mice is run substantially as the Reversal of Phencyclidine (PCP)-Induced Hyperlocomotor Activity in Rats assay provided above, using mice instead of rats and with the changes noted below.
Motor activity is monitored by placing individual male, ICR (CD-1), (Harlan, Indianapolis, Ind.) mice in transparent, plastic shoe-box cages of the dimensions 45×25×20 cm, with 0.5 cm depth of wood chips as bedding, and plastic lid on top of the cage. Motor monitors (Kinder Scientific) consist of a rectangular rack of 12 photobeams arranged in an 8×4 formation, (or a high density grouping of 22 in a 15×7 pattern) at a height of 2.5 cm. The shoe box cage is placed inside of these racks, with the racks on a 3 foot high tabletop in an isolated room. A compound of the present invention is dosed (intraperitoneal route, non-prodrug) usually within a range of 0.3-30 mg/kg; though higher doses may be used, 30 minutes prior to a 7.5 mg/kg challenge dose of phencyclidine (PCP). On the test day, mice are placed in the test cage and allowed to acclimate for 45 minutes prior to PCP challenge; mice are monitored for an additional 60 minutes following PCP administration.
Power analyses have determined that 7-8 mice per group are needed to have appropriate statistical power for detecting treatment differences (power=0.8).

human mGlu2 receptor = biological target: T2, human mGlu2 receptor (Homo sapiens, UniProt Q14416); test: Human mGlu2 Agonist FLIPR Assay; format: cell-based; conditions: for Emax: percent stimulation relative to maximal glutamate response (100 μM glutamate), read-out: Relative % Efficacy
T2 construct: expressed in transfected cells; host or cells: AV-12 cells (Syrian hamster fibroblasts), co-transfected with rat EAAT1 and Galpha15
Description: AV-12 cell lines, derived from Syrian Hamster fibroblasts and stably expressing the human mGlu2 receptor and co-transfected with the rat glutamate transporter EAAT 1 (Excitatory Amino Acid Transporter 1) and the Gα15 subunit, are used for these studies. The expression of Gα15 allows Gi-coupled receptors to signal through the phospholipase C pathway, resulting in the ability to measure receptor activation by a fluorometric calcium response assay. The cell lines are maintained by culturing in Dulbecco's Modified Eagle's Medium (DMEM) with high glucose and pyridoxine hydrochloride supplemented with 5% dialyzed fetal bovine serum, 1 mM sodium pyruvate, 10 mM HEPES [4-(2-hydroxyethyl)-1-piperazineethanesulfonic acid], 1 mM of L-glutamine, and 5 μg/mL blasticidin (all media are purchased from Invitrogen). Confluent cultures are passaged biweekly using an enzyme-free dissociation solution (Chemicon S-004-B).
Intracellular calcium levels are monitored before and after the addition of compounds using a Fluorometric Imaging Plate Reader (FLIPR®, Molecular Devices). The assay buffer is comprised of Hank's Buffered Salt Solution (HBSS; Sigma) supplemented with 20 mM HEPES. […] The dye solution is removed and replaced with fresh assay buffer (50 μL per well). […] Results are analyzed using PRISM® v4.03 (GraphPad Software). […] Exemplified compounds of the present invention are solubilized as 10 mM stocks in 0.1N NaOH and stored at −20 C. They are diluted through a three-fold dilution series into assay buffer. After taking an initial 5-sec fluorescent read on the FLIPR® instrument, a compound of the present invention is added to the cell plate (50 μL per well). Data are collected every second for the first 30 seconds and then every 3 seconds for a total of 90 seconds in order to detect agonist activity. The maximal response is defined as that induced by ECmax (100 μM glutamate). The compound effect is measured as maximal minus minimal peak heights in relative fluorescent units (RFUs) corrected for basal fluorescence measured in the absence of glutamate. Determinations are carried out using single plates. Agonist effects are quantified as percent stimulation induced by compound alone relative to the maximal glutamate response. All data are calculated as relative EC50 values using a four-parameter logistic curve fitting program (ACTIVITY BASE® v5.3.1.22).

[2] = test system: immobility in forced swim test in mice; test: Forced Swim Test in Rodents (mice); format: in vivo, mouse; conditions: intraperitoneal dosing 60 min prior to testing
Experimental: In this assay, mechanisms with purported antidepressant-like activity decrease immobility in a brief inescapable forced swim episode.
The forced-swim test was conducted in mice (male, NIH-Swiss mice, 20-25 g, Harlan Sprague-Dawley, Indianapolis, Ind.). Mice are placed in clear plastic cylinders (diameter 10 cm; height: 25 cm) filled to 6 cm with 22-25° C. water for six min. The duration of immobility is recorded during the last 4 min of a six-minute trial. The compounds of Examples 2, 3, 8, 11, and 12 are tested following intraperitoneal dosing, 60 min prior to testing. Imipramine is used as a positive control for these studies. Compounds are formulated in a water vehicle, with minimal NaOH added. The amount of time spent immobile (defined as movements only necessary to keep the subject's head above water) is the dependent measure and recorded by an observer blinded to the drug treatment of the subjects. Data are analyzed by post-hoc Dunnett's test with alpha level set at 0.05.

T2 sequence (Q14416 19-872): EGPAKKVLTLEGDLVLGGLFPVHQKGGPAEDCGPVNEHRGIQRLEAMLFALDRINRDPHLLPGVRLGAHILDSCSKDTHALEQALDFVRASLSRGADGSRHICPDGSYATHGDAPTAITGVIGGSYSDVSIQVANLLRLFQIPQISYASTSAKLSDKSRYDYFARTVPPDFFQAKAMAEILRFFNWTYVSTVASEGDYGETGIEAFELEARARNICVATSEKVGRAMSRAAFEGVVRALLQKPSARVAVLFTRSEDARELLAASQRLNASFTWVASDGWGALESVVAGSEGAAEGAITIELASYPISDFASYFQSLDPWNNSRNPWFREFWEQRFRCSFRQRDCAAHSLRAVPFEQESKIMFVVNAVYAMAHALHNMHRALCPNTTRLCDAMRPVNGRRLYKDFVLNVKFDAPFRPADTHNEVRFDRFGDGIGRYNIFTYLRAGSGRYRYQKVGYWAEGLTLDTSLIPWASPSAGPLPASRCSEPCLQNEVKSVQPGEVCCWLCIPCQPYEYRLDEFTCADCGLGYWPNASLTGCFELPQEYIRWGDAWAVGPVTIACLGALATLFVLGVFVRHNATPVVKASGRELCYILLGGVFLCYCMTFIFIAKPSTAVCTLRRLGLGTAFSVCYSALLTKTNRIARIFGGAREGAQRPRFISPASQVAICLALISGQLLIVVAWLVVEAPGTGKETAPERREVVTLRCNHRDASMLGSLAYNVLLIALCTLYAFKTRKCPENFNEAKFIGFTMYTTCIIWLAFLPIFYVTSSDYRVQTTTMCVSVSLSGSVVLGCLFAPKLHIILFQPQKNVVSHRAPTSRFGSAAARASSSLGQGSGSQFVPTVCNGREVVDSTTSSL

Row | SMILES | ED50 [1] | Emax (human mGlu2 receptor) | inhibition at 5000 µM (PepT1) | other results
1 | CC1=C(C(=O)O)N2C(=O)[C@@H](NC(=O)[C@H](N)c3ccc(O)cc3)[C@H]2SC1 [Cefadroxil, reference compound] |  |  |  | GlySar uptake inhibition, mean values ± standard deviation (controls) (PepT1): 53.2±13.2%
2 | Cl.N[C@@]1(C(=O)O)C[C@@H](Sc2cn[nH]n2)[C@H]2[C@H](C(=O)O)[C@H]21 [Example 1, (1R,2S,4R,5R,6R)-2-Amino-4-(2H-[1,2,3]triazol-4-ylsulfanyl)-bicyclo[3.1.0]hexane-2,6-dicarboxylic acid hydrochloride] | 18.4 mg/kg | 92.6% |  | EC50 (human mGlu2 receptor; hMGLUR2 FLIPR assay, AV-12 cells expressing human mGlu2, calcium response, read-out: Relative EC50): 0.046 µM
3 | Cl.N[C@@]1(C(=O)O)C[C@@H](Sc2nnc(C(F)(F)F)[nH]2)[C@H]2[C@H](C(=O)O)[C@H]21 [Example 2, (1R,2S,4R,5R,6R)-2-Amino-4-(5-trifluoromethyl-1H-[1,2,4]triazol-3-ylsulfanyl)-bicyclo[3.1.0]hexane-2,6-dicarboxylic acid hydrochloride] | 14.4 mg/kg | 78.5% |  | 
4 | Nc1nnc(S[C@@H]2C[C@@](N)(C(=O)O)[C@@H]3[C@@H](C(=O)O)[C@@H]32)[nH]1 [Example 3, (1R,2S,4R,5R,6R)-2-Amino-4-(5-amino-[1,3,4]triazol-2-ylsulfanyl)-bicyclo[3.1.0]hexane-2,6-dicarboxylic acid] | 17.1 mg/kg |  |  | ED60 (60% of the amount of immobility relative to vehicle controls) [2]: < 3 mg/kg
5 | N[C@@]1(C(=O)O)C[C@H](Sc2n[nH]c(C(F)(F)F)n2)[C@H]2[C@H](C(=O)O)[C@H]21 [Example 12, (1R,2S,4S,5R,6R)-2-Amino-4-[[5-(trifluoromethyl)-1H-1,2,4-triazol-3-yl]sulfanyl]bicyclo[3.1.0] hexane-2,6-dicarboxylic acid hydrochloride] |  | 92.1% |  | 
6 | C[C@H](N)C(=O)N[C@@]1(C(=O)O)C[C@@H](Sc2nnc(C(F)(F)F)[nH]2)[C@H]2[C@H](C(=O)O)[C@H]21 [Example 16, (1R,2S,4R,5R,6R)-2-[[(2S)-2-Aminopropanoyl]amino-4-[[5-(trifluoromethyl)-1H-1,2,4-triazol-3-yl]thio]bicyclo[3.1.0]hexane-2,6-dicarboxylic acid hydrochloride] |  |  | 53.9% | 
7 | NCC(=O)N[C@@]1(C(=O)O)C[C@H](Sc2nnc[nH]2)[C@H]2[C@H](C(=O)O)[C@H]21 [Example 22, (1R,2S,4S,5R,6R)-2-[(-2-Aminoacetyl)amino]-4-(4H-1,2,4-triazol-3-ylsulfanyl)bicyclo[3.1.0]hexane-2,6-dicarboxylic acid hydrochloride] |  |  | 46.7% | 
8 | CC(C)C[C@H](N)C(=O)N[C@@]1(C(=O)O)C[C@H](Sc2nnc[nH]2)[C@H]2[C@H](C(=O)O)[C@H]21 [Example 24, (1R,2S,4S,5R,6R)-2-(L-leucylamino)-4-(4H-1,2,4-triazol-3-ylsulfanyl)bicyclo [3.1.0]hexane-2,6-dicarboxylic acid hydrochloride] |  |  | 47.1% | 
9 | NCC(=O)O [Glycine, reference compound] |  |  |  | GlySar uptake inhibition, mean values ± standard deviation (controls) (PepT1): 10.1±9.5%
